Assay results: patent US6384281B1, “3-bicycloaryl-2-aminomethyl bicycloalkanes as serotonine reuptake inhibitors” (Eli Lilly and Company, priority 1999, dated 2002)
Counter-ions that a name gives are not always drawn.

Biological target: T1, [3H]-citalopram binding sites on rat cerebral cortical membranes (serotonin reuptake) (Rattus norvegicus, UniProt P31652)
T1 construct: from tissue; host or cells: rat cerebral cortex membranes
Experiment: [3H]-Citalopram binding assay
Conditions: not given

T1 sequence (P31652 whole entry): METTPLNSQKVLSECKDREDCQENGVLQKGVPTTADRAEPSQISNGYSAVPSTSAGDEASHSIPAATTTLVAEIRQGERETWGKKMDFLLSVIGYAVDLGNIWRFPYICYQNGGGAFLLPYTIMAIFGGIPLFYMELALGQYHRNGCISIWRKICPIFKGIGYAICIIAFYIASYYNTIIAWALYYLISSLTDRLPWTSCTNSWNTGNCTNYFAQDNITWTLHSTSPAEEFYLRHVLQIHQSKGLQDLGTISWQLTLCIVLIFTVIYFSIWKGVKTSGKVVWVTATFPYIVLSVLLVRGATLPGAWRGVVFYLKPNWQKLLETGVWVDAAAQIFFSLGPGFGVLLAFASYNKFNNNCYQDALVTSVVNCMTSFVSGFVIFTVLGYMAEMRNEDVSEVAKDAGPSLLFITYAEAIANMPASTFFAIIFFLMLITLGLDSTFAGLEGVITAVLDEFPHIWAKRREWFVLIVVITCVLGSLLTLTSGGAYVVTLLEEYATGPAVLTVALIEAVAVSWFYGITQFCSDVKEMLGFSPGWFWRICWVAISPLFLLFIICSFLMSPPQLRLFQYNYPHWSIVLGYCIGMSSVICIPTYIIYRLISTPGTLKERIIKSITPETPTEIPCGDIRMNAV

Row | SMILES | Ki
1 | CNCC1C2CCC(C2)C1c1ccc2ccccc2c1 (stereo not drawn) [trans-endo-N-methyl (3-naphthalen-2-ylbicyclo [2.2.1]hept-2-yl)methanamine] | < 0.1 µM
2 | CN(C)C[C@H]1[C@H]2CC[C@H](C2)[C@@H]1c1ccc2cc(F)ccc2c1 [[(1S,2S,3S,4R)-3-(6-fluoro-2-naphthyl)bicyclo[2.2.1]hept-2-yl]-N,N-dimethylmethanamine] | < 0.1 µM
3 | CN(C)CC1C2CCC(C2)C1c1ccc2ccccc2c1 (stereo not drawn) [trans-endo-N,N-dimethyl(3-naphthalen-2-ylbicyclo[2.2.1]hept-2-yl)methanamine] | < 0.1 µM

Same assay, conditions: displacement of [3H]-citalopram, rat cerebral cortical membranes, 37° C. for 90 minutes; read-out: Ki

Row | Ki | SMILES
4 | < 0.1 µM | NCC1C2CCC(CC2)C1c1ccc2ccccc2c1 (stereo not drawn) [trans-(3-Naphthalen-2-ylbicyclo[2.2 .2]oct-2-yl)methanamine]
5 | < 0.1 µM | Cc1csc2ccc([C@@H]3[C@H]4CC[C@H](C4)[C@H]3CN(C)C)cc12 [N,N-dimethyl[(1R,2R,3R,4S)-3-(3-methyl-1-benzothien-5-yl)bicyclo[2.2.1]hept-2-yl]methanamine]
6 | < 0.1 µM | CN(C)C[C@H]1[C@H]2CC[C@H](C2)[C@@H]1c1cc2ccc(F)cc2s1 [[(1S,2S,3S,4R)-3-(6-fluoro-1-benzothien-2-yl)bicyclo[2.2.1]hept-2-yl)-N,N-dimethylmethanamine]

Row | SMILES | Ki
7 | CN(C)C[C@H]1[C@H]2CC[C@H](C2)[C@@H]1c1csc2cc(F)ccc12 [[(1S,2S,3S,4R)-3-(6-fluoro-1-benzothien-3-yl)bicyclo[2.2.1]hept-2-yl]-N,N-dimethylmethanamine] | < 0.1 µM

Test system: not given
Experiment: not given
Conditions: not given

Row | SMILES | melting point
8 | CN(C)CC1C2CCC(C2)C1c1ccc2ccccc2c1 (stereo not drawn) (as salt: hydrochloride) [trans-endo-N,N-dimethyl(3-naphthalen-2-ylbicyclo[2.2.1]hept-] [trans-endo-N,N-dimethyl(3-naphthalen-2-ylbicyclo[2.2.1]hept-2-yl)methanamine] | 249 to 250 °C
9 | CN(C)CC1C2CCC(C2)C1c1ccc2ccccc2c1 (stereo not drawn) (as salt: hydrochloride) [cis- N,N-dimethyl(3-naphthalen-2-ylbicyclo[2.2.1]hept-2-yl)m] [cis-N,N-dimethyl (3-naphthalen-2-ylbicyclo[2.2.1]hept-2-yl)methanamine] | 255 to 257 °C
10 | CN(C)C[C@H]1[C@H]2CC[C@H](C2)[C@@H]1c1ccc2cc(F)ccc2c1 (as salt: hydrochloride) [[(1S,2S,3S,4R)-3-(6-fluoro-2-naphthyl)bicyclo[2.2.1]hept-2-yl]-N,N-dimethylmethanamine] | 137 to 138 °C
11 | CN(C)C[C@H]1[C@H]2CC[C@H](C2)[C@@H]1c1ccc2ccsc2c1 (as salt: hydrochloride) | 240 to 242 °C
12 | Cc1csc2ccc([C@@H]3[C@H]4CC[C@H](C4)[C@H]3CN(C)C)cc12 (as salt: hydrochloride) [N,N-dimethyl[(1R,2R,3R,4S)-3-(3-methyl-1-benzothien-5-yl)bicyclo[2.2.1]hept-2-yl]methanamine] | 250 to 252 °C
